Organism: Rattus norvegicus
Experiment: Open TG-GATES - Regimen: Single
Format: toxicity, organism-based, Sprague-Dawley
Set-up: regimen Single, gender Male, age 6 weeks
Conditions: in vivo, po, 20 mg/kg, route gavage, dose level Low; for APTT / Bas / Eos / Fbg / Hb / Ht / Lym / MCH / MCHC / MCV / Mono / Neu / PT / Plat / RBC / Ret / WBC: tissue Blood; for KIDNEY_L / KIDNEY_R / KIDNEY_TOTAL: tissue Kidney; for LIVER: tissue Liver; for A/G / ALP / ALT / AST / BUN / CRE / Ca / Cl / DBIL / GLC / IP / K / LDH / Na / PL / RALB / TBIL / TC / TG / TP / gamma-GTP: tissue Plasma

Compound: CCc1oc2ccccc2c1C(=O)c1cc(Br)c(O)c(Br)c1 [BENZBROMARONE]
- TERMINAL_BW (3 h): 212.8 g
- APTT (3 h): 16.3 s
- Bas (3 h): 0%
- Eos (3 h): 0.6%
- Fbg (3 h): 237.6 mg/dL
- Hb (3 h): 13.8 g/dL
- Ht (3 h): 41%
- Lym (3 h): 81.2%
- MCH (3 h): 21.7 pg
- MCHC (3 h): 33.6%
- MCV (3 h): 64.6 fL
- Mono (3 h): 8.4%
- Neu (3 h): 9.8%
- PT (3 h): 11.8 s
- Plat (3 h): 106.4 x10_4/uL
- RBC (3 h): 634.6 x10_4/ul
- Ret (3 h): 7.7%
- WBC (3 h): 91.2 x10_2/uL
- KIDNEY_L (3 h): 0.9 g
- KIDNEY_R (3 h): 1 g
- KIDNEY_TOTAL (3 h): 1.9 g
- LIVER (3 h): 10.1 g
- A/G (3 h): 2.3
- ALP (3 h): 902 IU/L
- ALT (3 h): 33.6 IU/L
- AST (3 h): 62 IU/L
- BUN (3 h): 11.2 mg/dL
- CRE (3 h): 0.6 mg/dL
- Ca (3 h): 10.7 mg/dL
- Cl (3 h): 103.4 meq/L
- DBIL (3 h): 0.034 mg/dL
- GLC (3 h): 195.4 mg/dL
- IP (3 h): 9.5 mg/dL
- K (3 h): 4.8 meq/L
- LDH (3 h): 81.6 IU/L
- Na (3 h): 139 meq/L
- PL (3 h): 147 mg/dL
- RALB (3 h): 3.9 g/dL
- TBIL (3 h): 0.3 mg/dL
- TC (3 h): 79.6 mg/dL
- TG (3 h): 81.2 mg/dL
- TP (3 h): 5.6 g/dL
- gamma-GTP (3 h): 1 IU/L
- TERMINAL_BW (6 h): 212.2 g
- APTT (6 h): 16.1 s
- Bas (6 h): 0%
- Eos (6 h): 1.2%
- Fbg (6 h): 228 mg/dL
- Hb (6 h): 13.8 g/dL
- Ht (6 h): 41.2%
- Lym (6 h): 79.4%
- MCH (6 h): 21.6 pg
- MCHC (6 h): 33.5%
- MCV (6 h): 64.5 fL
- Mono (6 h): 7%
- Neu (6 h): 12.6%
- PT (6 h): 12.1 s
- Plat (6 h): 113.8 x10_4/uL
- RBC (6 h): 639.4 x10_4/ul
- Ret (6 h): 7.7%
- WBC (6 h): 111.3 x10_2/uL
- KIDNEY_L (6 h): 1 g
- KIDNEY_R (6 h): 1 g
- KIDNEY_TOTAL (6 h): 2 g
- LIVER (6 h): 9.9 g
- A/G (6 h): 2.2
- ALP (6 h): 710.4 IU/L
- ALT (6 h): 28.8 IU/L
- AST (6 h): 59.4 IU/L
- BUN (6 h): 11.2 mg/dL
- CRE (6 h): 0.4 mg/dL
- Ca (6 h): 10.5 mg/dL
- Cl (6 h): 103.2 meq/L
- DBIL (6 h): 0.002 mg/dL
- GLC (6 h): 183 mg/dL
- IP (6 h): 9.6 mg/dL
- K (6 h): 5.1 meq/L
- LDH (6 h): 90 IU/L
- Na (6 h): 138.2 meq/L
- PL (6 h): 136.4 mg/dL
- RALB (6 h): 3.8 g/dL
- TBIL (6 h): 0.4 mg/dL
- TC (6 h): 75 mg/dL
- TG (6 h): 75.4 mg/dL
- TP (6 h): 5.6 g/dL
- gamma-GTP (6 h): 1 IU/L
- TERMINAL_BW (9 h): 210.1 g
- APTT (9 h): 15.6 s
- Bas (9 h): 0%
- Eos (9 h): 1%
- Fbg (9 h): 234.6 mg/dL
- Hb (9 h): 13.8 g/dL
- Ht (9 h): 40.9%
- Lym (9 h): 84.2%
- MCH (9 h): 22.1 pg
- MCHC (9 h): 33.8%
- MCV (9 h): 65.5 fL
- Mono (9 h): 6.2%
- Neu (9 h): 8.8%
- PT (9 h): 12.2 s
- Plat (9 h): 113.6 x10_4/uL
- RBC (9 h): 625.2 x10_4/ul
- Ret (9 h): 7.6%
- WBC (9 h): 103.5 x10_2/uL
- KIDNEY_L (9 h): 1 g
- KIDNEY_R (9 h): 1 g
- KIDNEY_TOTAL (9 h): 1.9 g
- LIVER (9 h): 9.3 g
- A/G (9 h): 2.1
- ALP (9 h): 840.2 IU/L
- ALT (9 h): 29.6 IU/L
- AST (9 h): 60 IU/L
- BUN (9 h): 10 mg/dL
- CRE (9 h): 0.5 mg/dL
- Ca (9 h): 10.1 mg/dL
- Cl (9 h): 104.2 meq/L
- DBIL (9 h): 0.008 mg/dL
- GLC (9 h): 194.4 mg/dL
- IP (9 h): 10.5 mg/dL
- K (9 h): 4.8 meq/L
- LDH (9 h): 86.6 IU/L
- Na (9 h): 138.4 meq/L
- PL (9 h): 119.4 mg/dL
- RALB (9 h): 3.8 g/dL
- TBIL (9 h): 0.4 mg/dL
- TC (9 h): 67.8 mg/dL
- TG (9 h): 44 mg/dL
- TP (9 h): 5.7 g/dL
- gamma-GTP (9 h): 1 IU/L
- TERMINAL_BW (24 h): 225.2 g
- APTT (24 h): 16.5 s
- Bas (24 h): 0%
- Eos (24 h): 1.6%
- Fbg (24 h): 229 mg/dL
- Hb (24 h): 13.9 g/dL
- Ht (24 h): 41.3%
- Lym (24 h): 78.2%
- MCH (24 h): 21.8 pg
- MCHC (24 h): 33.7%
- MCV (24 h): 64.8 fL
- Mono (24 h): 7.8%
- Neu (24 h): 13%
- PT (24 h): 12.1 s
- Plat (24 h): 112.8 x10_4/uL
- RBC (24 h): 636.8 x10_4/ul
- Ret (24 h): 7.2%
- WBC (24 h): 103.7 x10_2/uL
- KIDNEY_L (24 h): 1 g
- KIDNEY_R (24 h): 1 g
- KIDNEY_TOTAL (24 h): 2 g
- LIVER (24 h): 11.3 g
- A/G (24 h): 2
- ALP (24 h): 915.4 IU/L
- ALT (24 h): 37 IU/L
- AST (24 h): 62.6 IU/L
- BUN (24 h): 18.6 mg/dL
- CRE (24 h): 0.6 mg/dL
- Ca (24 h): 10.5 mg/dL
- Cl (24 h): 105.2 meq/L
- DBIL (24 h): 0.04 mg/dL
- GLC (24 h): 184.2 mg/dL
- IP (24 h): 7.8 mg/dL
- K (24 h): 5.4 meq/L
- LDH (24 h): 105.4 IU/L
- Na (24 h): 138.4 meq/L
- PL (24 h): 161.2 mg/dL
- RALB (24 h): 4 g/dL
- TBIL (24 h): 0.3 mg/dL
- TC (24 h): 83.2 mg/dL
- TG (24 h): 131 mg/dL
- TP (24 h): 6 g/dL
- gamma-GTP (24 h): 1.4 IU/L
